The source of these data is patent US8563580B2, “Flavivirus inhibitors and methods for their use” (Georgetown University, priority 2008, dated 2013).

The assay concerns WNV protease. The assay is described as follows: High Throughput Screen (HTS) protease assay. It is filed as biochemical, West Nile virus (EG101 strain). The settings on record: 100 nl of 5 mg/ml compound in DMSO per 30.1 μl well; substrate Boc-Gly-Lys-Arg-AMC 50 μM; DMSO controls = 100% activity. On the procedure: Procedures for expression and purification of WNV (EG101 strain) were similar to those described elsewhere by Mueller et al., Int. J. Biochem. Cell. Biol., 39: 606-14 (2007). Briefly, E. coli Top10 F′ cells (Invitrogen, Carlsbad, Calif.) were transformed with the protease expression plasmid. Cells were grown at 37° C. until the OD600 was ˜0.5. Cells were then induced with isopropyl-1-thio-β-D-galactopyranoside (American Bioanalytical, Natick, Mass.) (0.5 mM), and incubated for 4 h at 37° C. Cells were harvested by centrifugation (5000×g) for 15 min at 4° C., washed once with a buffer containing 50 mM Tris-HCl, pH 7.5, and 200 mM NaCl, centrifuged at 5000×g for 15 min at 4° C., and stored at -80° C. until used.
Proteases were purified by suspending bacterial pellets in 50 mM Hepes, pH 7.0, 500 mM NaCl, (buffer A) with 0.05 mg/ml lysozyme. Cells were incubated for 30 min on ice after addition of 10% stock solution of Triton X-100 (final concentration of 0.5%). Cells were disrupted by sonication for 2 min and the soluble fraction was collected after centrifugation (15,000×g) for 30 min at 4° C. The soluble fraction was incubated for 1 h at 4° C. with Talon resin (BD Bioscience, San Jose, Calif.) which was pre-equilibrated in buffer A. The affinity resin was centrifuged at (400×g) for 10 min at 4° C., washed three times with buffer A, and packed into a column. Washing of the column was continued with the buffer A containing 10 mM imidazole, followed by elution of the protease with buffer A containing 150 mM imidazole. The protease was concentrated and further purified by Sephadex G-75 gel filtration chromatography. The purified protease fractions were pooled and dialyzed against a buffer containing 50 mM Tris-HCl pH 7.5 and 300 mM NaCl (4×1 L). Aliquots (100 μl) were frozen at −80° C.
The protease assay (100 μl) described by Mueller et al., Int. J. Biochem. Cell. Biol. 39: 606-14 (2007) was adapted for a 384-well plate format (30.1 μl). Microtiter plates were loaded sequentially with 14 μl of the reaction buffer containing 200 mM Tris-HCl, pH 9.5, and 30% glycerol (TG buffer) using an automated Wellmate (Matrix, Hudson, N.H.) and 6 μl of WNV protease (0.05 μM) (as prepared above) in TG buffer containing 15 mM NaCl (3 mM final concentration). Plates were then centrifuged at 1000×g for 3 min at room temperature to mix samples and pool liquids at the bottom of the wells. Inhibitor compounds (100 nl of 5 mg/ml in dimethyl sulfoxide; DMSO) were added to each well in duplicate by a pin-transfer mechanism of a robotic delivery system. The final inhibitor concentrations in the assays varied due to different molecular weights of the compounds from the libraries that were screened. Plates were incubated at room temperature to allow for formation of protease/inhibitor complexes. The fluorogenic substrate, t-butyl-oxycarbonyl(Boc)-Gly-Lys-Arg-7-amino-4-methyl coumarin (AMC) (10 μl in TG buffer; 50 μM final concentration in the reaction mixture), was added using the Wellmate, and the plates were centrifuged for 3 min at 1000×g and incubated at room temperature for 15 min. Fluorescence was measured at excitation and emission wavelengths of 385 nm and 465 nm, respectively, on a Perkin-Elmer (Waltham, Mass.) spectrofluorometer. To validate the assay conditions, aprotinin (bovine pancreatic trypsin inhibitor, BPTI) was used as a positive control. Assay mixtures containing DMSO were used as negative controls. The average of fluorescence values in duplicate wells for a given compound was used to determine the percent activity by taking the values obtained with DMSO controls as 100%. Compounds 1-11, 18-32, and 37-101 above were identified. […] Compounds 12-17 are compounds related to those identified in the HTS screen that also show significant WNV protease inhibition, i.e., >95%.

For `CCn1c2ccccc2c2nnc(SCC(=O)Nc3ccc(S(N)(=O)=O)cc3)nc21` [Compound 86], the “% Inhibition (reduction in protease activity)” value turned out to be 54%.
Turning to `Cc1ccc(-n2nc3c(c2NC(=O)CCC2CCCC2)CSC3)cc1` [Compound 101], the “% Inhibition (reduction in protease activity)” value is recorded as 50%.
With `C=CCn1c(SCc2ccc(C(=O)OC)cc2)nc2ccccc2c1=O` [Compound 56], the “% Inhibition (reduction in protease activity)” value is on record as 51%.
Regarding `O=C1C(c2ccccc2)c2ccccc2N1Cc1ccccc1` (stereo not shown) [Compound 43], the “% Inhibition (reduction in protease activity)” value is 54%.
With `Oc1c(C(Nc2nccs2)c2ccccc2)ccc2cccnc12` (stereo not shown) [Compound 14], the “% Inhibition (reduction in protease activity)” value is over 95%.
Consider `O=C(/C=C/c1ccccc1)Nc1c2c(nn1-c1ccccc1)CSC2` [Compound 74], for which the “% Inhibition (reduction in protease activity)” value worked out at 57%.
As to `Cc1ccc(-c2csc(-n3sc4ccccc4c3=O)n2)cc1` [Compound 45], the “% Inhibition (reduction in protease activity)” value was found to be 52%.
For `O=C(NC(c1ccccc1Cl)c1ccc2cccnc2c1O)c1ccccc1` (stereo not shown) [Compound 2] the value was 85%; for `Cc1ccnc(NC(c2ccccc2O)c2ccc3cccnc3c2O)c1` (stereo not shown) [Compound 12], over 95%.
For `COc1ccc(C(NC(=O)c2ccccc2)c2ccc3cccnc3c2O)cc1` (stereo not shown) [Compound 1] the value was 86%; for `CC(C)c1ccc(NC(=O)CSC(=O)c2ccccc2)cc1` [Compound 92], 52%.
Consider `Cc1ccc2ccc(C(Nc3ccccn3)c3ccc4c(c3)OCO4)c(O)c2n1` (stereo not shown) [Compound 4], for which the “% Inhibition (reduction in protease activity)” value came to 83%.
With `O=C(CCc1ccccc1)Nc1nnc(SCc2ccc(F)cc2)s1` [Compound 69], the “% Inhibition (reduction in protease activity)” value is listed as 61%.
For `N#CCC(=O)Nc1ccc(Oc2ccccc2)cc1` [Compound 97] the value was 51%; for `O=C(Nc1ccc(F)cc1F)c1ccc2c(c1)C(=O)N(Cc1ccco1)C2=O` [Compound 58], 55%; for `Cc1ccc(NC(=O)c2cnn(-c3ccccc3)c2NC(=O)c2ccco2)cc1` [Compound 73], 58%.
As to `O=C(NCc1csc2ccccc12)c1cc(F)cc2c1OCOC2` [Compound 89], the “% Inhibition (reduction in protease activity)” value is 53%.
`COC(=O)/C=C1\S/C(=N/c2ccc(Cl)cc2)N(c2ccc(Cl)cc2)C1=O` [Compound 32]: the “% Inhibition (reduction in protease activity)” value was 59%.
Consider `CCN1C(=O)/C(=C/c2ccc(NC(=O)c3ccccc3Br)cc2)SC1=S` [Compound 18], for which the “% Inhibition (reduction in protease activity)” value is 83.5%.
`CCOC(=O)c1c(CC(C)C)csc1NC(=O)Cc1ccccc1` [Compound 83]: the “% Inhibition (reduction in protease activity)” value came out at 54%.
On to `O=C(Nc1ccc(Cl)cc1)Oc1ccccc1N1CCSCC1` [Compound 82], for which the “% Inhibition (reduction in protease activity)” value is reported as 55%.
As to `O=C(CCCN1C(=O)/C(=C/C=C/c2ccccc2)SC1=S)Nc1ccccn1` [Compound 21], the “% Inhibition (reduction in protease activity)” value is listed as 74%.
With `CCC(C(=O)Nc1c2c(nn1-c1ccc(F)cc1)CSC2)c1ccccc1` (stereo not shown) [Compound 76], the “% Inhibition (reduction in protease activity)” value was 57%.
Turning to `CC1CCN(S(=O)(=O)c2ccc(NC(=O)/C=C/c3ccco3)cc2)CC1` [Compound 62], the “% Inhibition (reduction in protease activity)” value stood at 72%.
As for `O=c1[nH]c2ccccc2c(O)c1-c1nc2ccccc2s1` [Compound 48], the “% Inhibition (reduction in protease activity)” value amounted to 67%.
For `O=C(CCC(=O)c1ccc(Cl)cc1)Nc1c(F)cccc1F` [Compound 71] the value was 59%.
For the compound `CCOc1cc2c(cc1OCC)C1C(C(=O)NCCCN3CCN(C)CC3)c3ccccc3C(=O)N1CC2` (stereo not shown) [Compound 61], the “% Inhibition (reduction in protease activity)” value amounted to 51%.
For `O=C(CC1Sc2ncnn2C1=O)Nc1ccc(Br)cc1` (stereo not shown) [Compound 57] the value was 58%.
Consider `O=C(Cn1cnc2ccccc2c1=O)Nc1ccc(Oc2ccccc2)cc1` [Compound 60], for which the “% Inhibition (reduction in protease activity)” value is 51%.
With `O=C(CCCN1C(=O)/C(=C/C=C/c2ccccc2)SC1=S)Nc1cccc(O)c1` [Compound 28], the “% Inhibition (reduction in protease activity)” value is 63%.
For `O=C1Nc2ccccc2/C1=C/c1ccccc1N1CCOCC1` [Compound 44] the value was 52%.
With `CC(/C=C1\SC(=S)N(CC(=O)Nc2ccccn2)C1=O)=C\c1ccccc1` [Compound 19], the “% Inhibition (reduction in protease activity)” value is recorded as 76.5%.
For `CN(C)c1ccc(C(Nc2nccs2)c2ccc3cccnc3c2O)cc1` (stereo not shown) [Compound 6] the value was 76%; for `COc1ccc(Cl)cc1NC(=O)c1cc(-c2ccco2)on1` [Compound 70], 60%.
As for `CC(Oc1cc(Cl)ccc1Cl)C(=O)N1CCc2ccccc21` (stereo not shown) [Compound 38], the “% Inhibition (reduction in protease activity)” value amounted to 58%.
With `O=C1/C(=C/C2C=CC=[SH]2)SC(=S)N1CC(=O)N(Cc1ccccc1)c1ccccc1` (stereo not shown) [Compound 26], the “% Inhibition (reduction in protease activity)” value turned out to be 67%.
For `CC(/C=C1\SC(=S)N(CCC(=O)Nc2ccccc2O)C1=O)=C\c1ccccc1` [Compound 25] the value was 67%; for `CC(C)N1C(=O)/C(=C2/C(=O)N(CC(=O)O)c3ccc(Br)cc32)SC1=S` [Compound 31], 53%; for `Cn1c(=O)n(CCOc2ccc(Cl)cc2)c2ccccc21` [Compound 41], 56%.
For `O=C1NC(=S)S/C1=C\c1ccc(-c2cccc(C(F)(F)F)c2)o1` [Compound 30], the “% Inhibition (reduction in protease activity)” value is 53%.
`Cc1nnc(NC(=O)CSc2cn(Cc3ccccc3)c3ccccc23)s1` [Compound 84]: the “% Inhibition (reduction in protease activity)” value is 54%.
Turning to `COc1cccc(CNC(=O)c2[nH]c(C)c(C(=O)NC3CCCCC3)c2C)c1` [Compound 93], the “% Inhibition (reduction in protease activity)” value amounted to 52%.
For `O=C(c1cc(Br)cc2c1OCC2)N1CCOCC1` [Compound 75] the value was 57%; for `Cc1cccc(N2C(=O)/C(=C/c3ccc(O)c(O)c3)SC2=S)c1C` [Compound 29], 58%; for `CC1=Nc2ccccc2N=C(NC(=O)CSc2nnnn2-c2ccccc2)C1c1ccccc1` (stereo not shown) [Compound 79], 56%.
For `COc1ccc(OCC(=O)OCCN2C(=O)c3ccccc3C2=O)cc1` [Compound 39], the “% Inhibition (reduction in protease activity)” value amounted to 57%.
In the case of `Cc1ccc(NC(=O)c2cc(-c3ccc(O)cc3)on2)cc1` [Compound 85], the “% Inhibition (reduction in protease activity)” value amounted to 54%.
Consider `Oc1c(C(Nc2ccccn2)c2ccccc2)ccc2cccnc12` (stereo not shown) [Compound 8], for which the “% Inhibition (reduction in protease activity)” value amounted to 75%.
Consider `Cc1cc(NC(=O)CSc2ccccn2)no1` [Compound 88], for which the “% Inhibition (reduction in protease activity)” value is given as 54%.
On to `CCN(CC)S(=O)(=O)c1ccc2oc(C(=O)Nc3cccc(OC)c3)c(C)c2c1` [Compound 64], for which the “% Inhibition (reduction in protease activity)” value was found to be 65%.
With `Cc1ccc(NC(=O)C23C(=O)Oc4ccccc4C2C3(C)C(=O)c2ccccc2)cc1` (stereo not shown) [Compound 68], the “% Inhibition (reduction in protease activity)” value is recorded as 61%.
Take `O=C(CSc1oc(-c2cccs2)nc1S(=O)(=O)c1ccccc1)NC1CCCCC1` [Compound 95]: the “% Inhibition (reduction in protease activity)” value worked out at 52%.
